Laboratory results: ChEMBL document CHEMBL1201862, “PubChem BioAssay data set” (2004)
The source made the active and inactive calls.

What was measured:
[1] = target: Cytochrome P450 2C9 (Homo sapiens, UniProt P11712)
[2] = target: Neurotensin receptor type 1 (Homo sapiens, UniProt P30989); type: functional;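 also: Image-based confirmatory dose-response assay measuring agonist activity at NTR1; NTR1-expressing U2OS osteosarcoma cells imaged for beta-arrestin GFP spot formation; agonist potency where compounds increase beta-arrestin recruitment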
[3] = Luminescent dose response cell-based high throughput screening assay for inhibitors of the Janus kinase 2 mutant JAK2V617F. [Related pubchem assays: 1446 (Primary screen.), 1521 (Confirmation assay.), 1486 (Counter screen.)]; type: functional
[4] = target: T1, Microphthalmia-associated transcription factor (Homo sapiens, UniProt O75030); assay: reducers of TRPM1 reporter luminescence, concentration series – cell-based, SK-MEL-5, cherry-picked, set 3, MITF inhibitor project, dose response (AID 493073); type: functional;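 also: SK-MEL-5 melanoma cells with luciferase driven by the MITF target TRPM1 promoter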
T1 sequence (O75030 whole entry): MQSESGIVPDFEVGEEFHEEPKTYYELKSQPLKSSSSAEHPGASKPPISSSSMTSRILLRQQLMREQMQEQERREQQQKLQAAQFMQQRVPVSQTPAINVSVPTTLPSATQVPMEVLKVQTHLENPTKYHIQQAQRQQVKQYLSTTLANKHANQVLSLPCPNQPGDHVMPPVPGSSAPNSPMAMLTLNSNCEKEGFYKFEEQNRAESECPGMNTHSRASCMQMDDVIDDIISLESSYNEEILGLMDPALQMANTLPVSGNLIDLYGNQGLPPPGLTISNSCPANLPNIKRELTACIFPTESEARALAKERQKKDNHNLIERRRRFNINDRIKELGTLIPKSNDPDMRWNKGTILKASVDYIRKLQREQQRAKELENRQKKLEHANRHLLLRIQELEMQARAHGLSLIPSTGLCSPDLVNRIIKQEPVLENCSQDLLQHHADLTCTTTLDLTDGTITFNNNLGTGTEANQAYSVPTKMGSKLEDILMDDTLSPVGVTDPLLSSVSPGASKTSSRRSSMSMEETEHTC

[5] = target: Nucleotide-binding oligomerization domain-containing protein 2 (Homo sapiens, UniProt Q9HC29); assay: PubChem AID 2334; type: functional
[6] = system: HEK293; assay: cells; settings: Homo sapiens
[7] = target: Tumor necrosis factor (Homo sapiens, UniProt P01375); assay: analog potency on TNFa NF-kB signaling – cell-based, revised, SAR follow-up (AID 2337); type: functional
[8] = target: T2, Nucleotide-binding oligomerization domain-containing protein 1 (Homo sapiens, UniProt Q9Y239); assay: blockers of NOD1 pathway activity – revised, SAR follow-up (AID 2333); type: functional
T2 sequence (Q9Y239 whole entry): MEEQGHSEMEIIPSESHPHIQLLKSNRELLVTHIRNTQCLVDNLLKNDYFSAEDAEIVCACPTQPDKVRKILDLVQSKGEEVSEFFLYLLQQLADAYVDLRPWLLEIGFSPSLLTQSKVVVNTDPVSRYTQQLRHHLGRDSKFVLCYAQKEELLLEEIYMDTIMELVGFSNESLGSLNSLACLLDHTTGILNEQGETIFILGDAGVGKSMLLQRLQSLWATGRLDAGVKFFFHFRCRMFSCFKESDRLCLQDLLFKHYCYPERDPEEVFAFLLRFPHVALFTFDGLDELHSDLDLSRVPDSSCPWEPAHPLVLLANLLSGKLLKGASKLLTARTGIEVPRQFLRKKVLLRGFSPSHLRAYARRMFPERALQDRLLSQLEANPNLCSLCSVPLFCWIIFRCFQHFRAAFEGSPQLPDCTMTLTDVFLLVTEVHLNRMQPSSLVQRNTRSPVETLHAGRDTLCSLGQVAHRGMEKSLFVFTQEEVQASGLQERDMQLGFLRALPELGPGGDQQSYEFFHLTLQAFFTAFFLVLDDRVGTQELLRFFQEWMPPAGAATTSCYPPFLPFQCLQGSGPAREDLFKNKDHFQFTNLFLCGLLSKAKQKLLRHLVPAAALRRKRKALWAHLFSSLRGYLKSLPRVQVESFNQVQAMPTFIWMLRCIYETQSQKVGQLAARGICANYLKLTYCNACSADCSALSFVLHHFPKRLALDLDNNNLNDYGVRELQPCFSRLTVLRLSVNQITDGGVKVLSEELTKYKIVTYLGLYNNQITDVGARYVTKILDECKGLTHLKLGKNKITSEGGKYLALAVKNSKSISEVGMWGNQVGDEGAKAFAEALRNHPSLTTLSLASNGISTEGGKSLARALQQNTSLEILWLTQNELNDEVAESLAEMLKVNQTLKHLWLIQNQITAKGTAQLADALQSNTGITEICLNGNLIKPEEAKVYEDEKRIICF

[9] = Luminescence Cell-Based Dose Retest to Confirm Inhibitors of Cancer Stem Cells. [Related pubchem assays (depositor defined):AID2717, AID2721]; type: functional, Homo sapiens; settings: Homo sapiens
[10] = cells; type: functional
[11] = DRD fibroblast viability loss – cell-based, non-viral oncogenic, luminescence, dose response (AID 1934); type: functional; settings: Homo sapiens
[12] = THP-1 cell cytotoxicity, dose response, cytotoxicity control for non-replicating M. tuberculosis project (AID 489025); type: functional
[13] = system: BJ; assay: cells; type: functional, cell-based; settings: Homo sapiens
[14] = Vero E6 cell cytotoxicity, dose response, cytotoxicity control for non-replicating M. tuberculosis project, secondary assay (AID 492998); type: functional, VeroE6; settings: Vero C1008
[15] = system: BJ; assay: BJ-TERT-LT-ST fibroblast viability loss – cell-based, RAS-independent, luminescence, dose response (AID 1935); type: functional; settings: Homo sapiens;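 also: BJ fibroblasts immortalized with TERT plus LT and ST oncogenes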
[16] = system: BJ; assay: BJ-TERT fibroblast viability loss – cell-based, RAS-independent, luminescence, dose response (AID 1933); type: functional; settings: Homo sapiens
[17] = target: T3, Protein skinhead-1 (Caenorhabditis elegans, UniProt P34707); type: functional
T3 sequence (P34707 whole entry): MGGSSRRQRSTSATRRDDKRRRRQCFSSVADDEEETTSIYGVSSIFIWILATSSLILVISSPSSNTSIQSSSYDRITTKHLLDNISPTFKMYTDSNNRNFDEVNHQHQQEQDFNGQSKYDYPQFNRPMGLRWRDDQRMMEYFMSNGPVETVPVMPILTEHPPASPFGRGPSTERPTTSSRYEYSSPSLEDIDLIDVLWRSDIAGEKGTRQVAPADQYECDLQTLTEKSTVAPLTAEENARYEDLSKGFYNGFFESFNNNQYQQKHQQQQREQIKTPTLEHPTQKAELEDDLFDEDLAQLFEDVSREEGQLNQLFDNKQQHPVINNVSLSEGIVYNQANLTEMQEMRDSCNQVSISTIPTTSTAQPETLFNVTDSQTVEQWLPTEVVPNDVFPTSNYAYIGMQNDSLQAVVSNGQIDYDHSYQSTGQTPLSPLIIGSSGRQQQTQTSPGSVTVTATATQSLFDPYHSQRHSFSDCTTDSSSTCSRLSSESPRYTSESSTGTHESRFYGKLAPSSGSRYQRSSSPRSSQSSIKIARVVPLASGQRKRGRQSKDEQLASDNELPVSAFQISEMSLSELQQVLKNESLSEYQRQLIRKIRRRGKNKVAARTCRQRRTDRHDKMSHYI

[18] = Cytotoxicity screening for potential Inhibitors of Bacterial Capsule Biogenesis. [Related pubchem assays (depositor defined):AID488970]; type: functional
[19] = blockade of melanocortin 4 receptor signaling – cell-based, plate reader, cherry pick, counter-screen for LGR2 antagonist project, dose response (AID 743444); type: functional;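 also: transfected HEK 293 cells stimulated with alpha-MSH peptide; potency of inhibitors of the alpha-MSH evoked signal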
[20] = system: HEK293; assay: NOD2 signaling inhibitors in MDP-stimulated cells, cell-based, uHTS, luminescence (AID 2001); type: functional; settings: Homo sapiens
[21] = A549 cell cytotoxicity, dose response, cytotoxicity control, plate reader, cherry-pick, antagonist series (AID 743412); type: functional, cell-based
[22] = blockers of bursicon-stimulated LGR2 cAMP reporter – cell-based, HEK293, CRE-luciferase reporter, cherry pick, set 2, dose response (AID 743343); type: functional;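 also: transfected cells were stimulated with diluted bursicon conditioned medium after compound addition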
[23] = viability loss of HPDE-C7K cells – cell-based, fluorescence, HTS, primary screen (AID 431); type: functional; settings: Homo sapiens
[24] = system: HEK293; assay: cells; type: functional, cell-based; settings: Homo sapiens
[25] = system: HEK293; assay: cells; type: functional, cell-based; settings: Homo sapiens; remark: listed apart in the source
[26] = viability of HCT116 lacking mutant beta-catenin – cell-based, human colon tumor, dose response (AID 1045); type: functional;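 also: HCT116 colon tumor cells with beta catenin knocked out; cells exposed to compound for 60 hours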
[27] = viability of PTEN-deleted HCT116 cells – cell-based, HCT116 PTEN knockout, dose response (AID 1047); type: functional;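 also: HCT116 colon tumor cells with PTEN knocked out; cells exposed to compound for 60 hours before readout; potency for loss of cell viability measured by luminescence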
[28] = HPDE-C7 pancreatic duct cell viability loss – fluorescence, HTS (AID 430); type: functional, cell-based; settings: Homo sapiens
[29] = system: HEK293; assay: inhibition of NOD1-driven NF-kB reporter – cell-based, luminescence, uHTS, primary screen (AID 1578); type: functional; settings: Homo sapiens
[30] = target: T4, Ubiquitin-conjugating enzyme E2 N (Homo sapiens, UniProt P61088); type: functional
T4 sequence (P61088 whole entry): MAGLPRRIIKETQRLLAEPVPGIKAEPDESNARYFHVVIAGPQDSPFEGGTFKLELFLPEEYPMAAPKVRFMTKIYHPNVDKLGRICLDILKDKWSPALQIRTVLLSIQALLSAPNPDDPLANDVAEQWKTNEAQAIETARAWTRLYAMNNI

[31] = target: T4, Ubiquitin-conjugating enzyme E2 N; type: functional; remark: listed apart in the source
[32] = target: T5, Bcl-2-related protein A1 (Mus musculus, UniProt Q07440); type: functional;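 also: confirmatory dose–response counterscreen on Bfl-1, used to check hits from a UBC13 polyubiquitin inhibitor campaign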
T5 sequence (Q07440 whole entry): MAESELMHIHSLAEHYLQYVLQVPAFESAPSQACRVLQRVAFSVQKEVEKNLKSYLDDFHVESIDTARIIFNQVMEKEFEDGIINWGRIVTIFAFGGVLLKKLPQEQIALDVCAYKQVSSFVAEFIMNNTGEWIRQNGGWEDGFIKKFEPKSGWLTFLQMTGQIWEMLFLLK

[33] = target: Paired box protein Pax-8 (Homo sapiens, UniProt Q06710); assay: PAX8 transcriptional activity inhibition in RMG-I – RMG-I cells, luciferase, cherry-pick, dose response (AID 687027); type: functional, cell-based;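 also: luciferase reporter driven by Pax8 target thyroperoxidase promoter measured by SteadyGlo luminescence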
Paired box protein Pax-8, sequence (Q06710 whole entry): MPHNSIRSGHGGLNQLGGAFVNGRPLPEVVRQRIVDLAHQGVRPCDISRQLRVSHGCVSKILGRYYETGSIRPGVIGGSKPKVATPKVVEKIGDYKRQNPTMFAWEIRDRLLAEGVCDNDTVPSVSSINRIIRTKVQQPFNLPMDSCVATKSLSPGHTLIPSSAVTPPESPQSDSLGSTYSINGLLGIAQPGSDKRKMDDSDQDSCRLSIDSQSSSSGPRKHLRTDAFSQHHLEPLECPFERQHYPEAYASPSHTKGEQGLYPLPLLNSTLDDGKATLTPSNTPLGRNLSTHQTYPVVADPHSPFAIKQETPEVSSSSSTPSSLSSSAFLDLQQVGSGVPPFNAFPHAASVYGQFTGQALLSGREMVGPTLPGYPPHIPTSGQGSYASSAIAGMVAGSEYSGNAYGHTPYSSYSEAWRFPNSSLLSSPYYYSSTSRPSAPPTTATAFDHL

Tumor necrosis factor, sequence (P01375 whole entry, the tested form may be a part): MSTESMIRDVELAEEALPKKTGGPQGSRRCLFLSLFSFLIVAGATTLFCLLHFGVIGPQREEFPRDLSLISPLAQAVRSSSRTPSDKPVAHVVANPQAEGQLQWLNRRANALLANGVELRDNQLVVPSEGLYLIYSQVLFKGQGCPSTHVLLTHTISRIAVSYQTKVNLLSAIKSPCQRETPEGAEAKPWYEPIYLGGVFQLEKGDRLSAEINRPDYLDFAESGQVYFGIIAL
Nucleotide-binding oligomerization domain-containing protein 2, sequence (Q9HC29 whole entry, the tested form may be a part): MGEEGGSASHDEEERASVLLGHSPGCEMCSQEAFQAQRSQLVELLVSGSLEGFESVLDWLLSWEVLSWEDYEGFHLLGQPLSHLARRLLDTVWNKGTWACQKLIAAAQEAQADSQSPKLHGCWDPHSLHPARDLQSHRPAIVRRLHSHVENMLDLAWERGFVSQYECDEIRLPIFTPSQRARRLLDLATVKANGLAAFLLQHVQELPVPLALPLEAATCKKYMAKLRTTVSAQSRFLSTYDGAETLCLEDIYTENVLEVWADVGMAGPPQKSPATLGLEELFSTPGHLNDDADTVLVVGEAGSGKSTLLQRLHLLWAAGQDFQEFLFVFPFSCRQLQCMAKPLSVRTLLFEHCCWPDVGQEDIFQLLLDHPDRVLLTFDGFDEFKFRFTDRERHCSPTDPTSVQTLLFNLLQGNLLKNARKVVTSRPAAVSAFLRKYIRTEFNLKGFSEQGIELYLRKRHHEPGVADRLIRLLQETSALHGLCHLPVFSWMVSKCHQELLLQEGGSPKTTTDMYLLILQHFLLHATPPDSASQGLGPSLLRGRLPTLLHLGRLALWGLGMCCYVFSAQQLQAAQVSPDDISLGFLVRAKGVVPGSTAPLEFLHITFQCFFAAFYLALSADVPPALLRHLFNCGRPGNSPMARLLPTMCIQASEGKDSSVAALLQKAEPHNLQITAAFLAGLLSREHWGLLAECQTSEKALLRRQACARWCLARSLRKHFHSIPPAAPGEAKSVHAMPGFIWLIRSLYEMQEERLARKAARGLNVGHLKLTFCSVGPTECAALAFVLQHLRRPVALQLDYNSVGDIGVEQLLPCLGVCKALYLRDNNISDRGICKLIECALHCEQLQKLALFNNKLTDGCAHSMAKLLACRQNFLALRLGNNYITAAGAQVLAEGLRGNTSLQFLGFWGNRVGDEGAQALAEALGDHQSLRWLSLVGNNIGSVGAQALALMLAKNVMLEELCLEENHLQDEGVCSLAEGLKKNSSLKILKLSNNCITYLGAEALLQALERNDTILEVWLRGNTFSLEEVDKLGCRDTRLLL
Neurotensin receptor type 1, sequence (P30989 whole entry): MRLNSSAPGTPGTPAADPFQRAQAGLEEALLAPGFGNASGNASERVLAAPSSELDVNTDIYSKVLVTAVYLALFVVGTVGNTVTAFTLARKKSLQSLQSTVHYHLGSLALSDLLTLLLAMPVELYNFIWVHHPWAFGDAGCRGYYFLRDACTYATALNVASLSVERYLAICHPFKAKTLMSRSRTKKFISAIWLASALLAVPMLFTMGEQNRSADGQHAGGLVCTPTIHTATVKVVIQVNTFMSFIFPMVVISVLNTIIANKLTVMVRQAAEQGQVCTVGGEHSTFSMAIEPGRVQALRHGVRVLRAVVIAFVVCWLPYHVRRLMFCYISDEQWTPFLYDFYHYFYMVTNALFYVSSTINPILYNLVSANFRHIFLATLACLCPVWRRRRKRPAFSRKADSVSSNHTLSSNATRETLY
Cytochrome P450 2C9, sequence (P11712 whole entry): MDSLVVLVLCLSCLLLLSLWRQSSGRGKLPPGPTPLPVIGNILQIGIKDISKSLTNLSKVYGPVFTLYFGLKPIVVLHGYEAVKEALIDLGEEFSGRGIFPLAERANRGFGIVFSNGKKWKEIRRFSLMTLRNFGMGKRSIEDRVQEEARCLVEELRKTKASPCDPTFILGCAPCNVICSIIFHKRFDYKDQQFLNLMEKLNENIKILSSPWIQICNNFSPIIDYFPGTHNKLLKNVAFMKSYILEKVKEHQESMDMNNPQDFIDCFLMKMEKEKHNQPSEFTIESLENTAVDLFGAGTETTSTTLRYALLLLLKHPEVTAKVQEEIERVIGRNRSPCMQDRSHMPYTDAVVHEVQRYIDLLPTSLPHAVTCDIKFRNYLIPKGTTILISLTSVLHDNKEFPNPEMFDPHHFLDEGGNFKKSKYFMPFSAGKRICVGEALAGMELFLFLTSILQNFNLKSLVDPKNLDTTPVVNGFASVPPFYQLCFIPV

C/C(=C\c1ccc(N(C)C)cc1)[N+](=O)[O-]
inconclusive: AC50 [1] 31.6 µM
active: EC50 [2] 4.26 µM | IC50 [3] 0.653 µM | AC50 [4] 13.1 µM

COC(=O)c1c(NC(=O)C(=O)N2CCCCC2)sc2c1CC(C)(C)OC2
inactive: IC50 [5] > 20 µM | IC50 [6] > 20 µM | IC50 [7] > 20 µM | IC50 [8] > 20 µM

O=C1NC(=O)N(CCc2ccc(F)cc2)C(=O)/C1=C/C=C/c1ccccc1
inactive: EC50 [2] 39.3 µM
> 150 µM (not active): EC50 [13]
active: AC50 [9] 1.05 µM | IC50 [10] 48.4 µM | CC50 [12] 5.09 µM | CC50 [14] 16.8 µM
inconclusive: EC50 [11] 5.39 µM | EC50 [15] 11.6 µM | EC50 [16] 5.32 µM

COc1ccc2nc(NC(=O)c3ccc(Br)s3)sc2c1
inactive: IC50 [17] > 100 µM
active: CC50 [18] > 100 µM

CCCc1nc(SCC(=O)N2CCC(Cc3ccccc3)CC2)c2c(=O)n(C)c(=O)n(C)c2n1
inactive: AC50 [21] > 52 µM | IC50 [24] > 20 µM
active: IC50 [5] 11.4 µM | AC50 [19] 17.9 µM | IC50 [20] 5.22 µM | IC50 [6] 19.3 µM | AC50 [22] 18.6 µM | EC50 [23] 6.62 µM | IC50 [25] 8.67 µM | EC50 [26] 33.7 µM | EC50 [27] 33.6 µM | IC50 [7] 11 µM | IC50 [8] 12.2 µM | EC50 [28] 6.8 µM | EC50 [29] 5.46 µM

O=C(Nc1cccc(C2=NCCN2)c1)Nc1cccc(C2=NCCN2)c1 [IMIDOCARB DIPROPIONATE]
inactive: IC50 [32] > 20 µM
active: IC50 [30] 10.6 µM | IC50 [31] 13.2 µM | CC50 [18] > 100 µM | AC50 [33] 0.879 µM
